According to the supplement of paper PMC8671470:

tested on: myeloid leukemia patient primary cells Pat.11; assay: cell viability (% survival relative to DMSO control); higher = less cytotoxic; details: 10 nM; 72 h
How it was run: (§1)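 Where an area under the curve appears, it was computed with the drc and PharmacoGx R packages from log-logistic fits. Those fits used four parameters. The underlying viability data came from CellTiter-Glo after 72 h, normalised to DMSO and 10 μM proteasome-inhibitor wells, with thawed, Ficoll-purified AML or CML patient mononuclear cells at 10,000 cells/well in RPMI 1640 with 10% FBS on 384-well plates pre-printed with 70 compounds at five tenfold concentrations (1–10,000 nM) in duplicate.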

Going from `C=C(C)[C@H]1Cc2c(ccc3c2O[C@@H]2COc4cc(OC)c(OC)cc4[C@@H]2C3=O)O1` [Rotenone] to `CC[C@@]1(O)C(=O)OCc2c1cc1n(c2=O)Cc2cc3c(CN(C)C)c(O)ccc3nc2-1` [Topotecan], the cell viability rises from 93.3% to 97.2%.

`Oc1ccc(Nc2nc(-c3ccc(Cl)cc3)cs2)cc1` [SKI II] gave a cell viability of 97.2%.

same assay, conditions: 100 nM; 72 h

Going from `O=C(C1CC1)N1CC[C@@H](C=C2NNC(=O)N2c2ccc(-c3ccc4occc4c3)cc2)C1` to `Cc1c(-c2ccc(-c3ccccc3F)cc2)nc2ccc(F)cc2c1C(=O)O` [Brequinar], the cell viability rises from 99.7% to greater than 100%.

Compared with `C[C@H](NC(=O)c1sccc1OCc1ccc(Cl)cc1)c1ccccc1`, `Oc1ccc(Nc2nc(-c3ccc(Cl)cc3)cs2)cc1` [SKI II] is lower in cell viability: greater than 100% for the first, 98.4% for the second.

Compared with `O=C(O)C1=CC(=C(c2ccc(O)c(C(=O)O)c2)c2ccc(O)c(C(=O)O)c2)C=CC1=O` [Aurintricarboxylic acid], `O=C1c2cc([N+](=O)[O-])ccc2-n2c1nc1ccccc1c2=O` [GNF-Pf-3777] is lower in cell viability: greater than 100% for the first, 94% for the second.

Compared with `COC(=O)[C@]12CCC(C)(C)C[C@H]1[C@H]1C(=O)C=C3[C@@]4(C)C=C(C#N)C(=O)C(C)(C)[C@@H]4CC[C@@]3(C)[C@]1(C)CC2` [Bardoxolone methyl], `COc1cc(/C=C/C(=O)N2CCC=CC2=O)cc(OC)c1OC` [Piperlongumine] is higher in cell viability: 87.7% for the first, greater than 100% for the second.

First: O=C1O/C(=C/Br)CCC1c1cccc2ccccc12 (centres undefined) [Bromoenol Lactone]
Second: O=C(O)Cn1nnc(-c2cc(N3CCC(Oc4cc(F)ccc4Br)CC3)no2)n1 [MK-8245]
The cell viability of the first is lower: 99.2% for the first, greater than 100% for the second.

First: Nc1nc(Cl)nc2c1ncn2[C@H]1C[C@H](O)[C@@H](CO)O1 [Cladribine]
Second: CC[C@@]1(O)C(=O)OCc2c1cc1n(c2=O)Cc2cc3c(CN(C)C)c(O)ccc3nc2-1 [Topotecan]
The cell viability of the first is lower: 76.6% for the first, 92.4% for the second.

Compared with `N#CC(C#N)=NNc1ccc(OC(F)(F)F)cc1` [FCCP], `C=C(C)[C@H]1Cc2c(ccc3c2O[C@@H]2COc4cc(OC)c(OC)cc4[C@@H]2C3=O)O1` [Rotenone] is lower in cell viability: greater than 100% for the first, 94.2% for the second.

`C=C(C=NNC(=N)N)NNC(=N)N` [Mitoguazone] showed a cell viability greater than 100%.

same assay, conditions: 1000 nM; 72 h

Going from `O=C(C1CC1)N1CC[C@@H](C=C2NNC(=O)N2c2ccc(-c3ccc4occc4c3)cc2)C1` to `Cc1c(-c2ccc(-c3ccccc3F)cc2)nc2ccc(F)cc2c1C(=O)O` [Brequinar], the cell viability rises from 91.5% to greater than 100%.

First: C[C@H](NC(=O)c1sccc1OCc1ccc(Cl)cc1)c1ccccc1
Second: Oc1ccc(Nc2nc(-c3ccc(Cl)cc3)cs2)cc1 [SKI II]
The cell viability of the first is higher: 97.6% for the first, 92% for the second.

First: O=C(O)C1=CC(=C(c2ccc(O)c(C(=O)O)c2)c2ccc(O)c(C(=O)O)c2)C=CC1=O [Aurintricarboxylic acid]
Second: O=C1c2cc([N+](=O)[O-])ccc2-n2c1nc1ccccc1c2=O [GNF-Pf-3777]
The cell viability of the first is higher: greater than 100% for the first, 86.8% for the second.

`COC(=O)[C@]12CCC(C)(C)C[C@H]1[C@H]1C(=O)C=C3[C@@]4(C)C=C(C#N)C(=O)C(C)(C)[C@@H]4CC[C@@]3(C)[C@]1(C)CC2` [Bardoxolone methyl] and `COc1cc(/C=C/C(=O)N2CCC=CC2=O)cc(OC)c1OC` [Piperlongumine] cannot be ordered by cell viability: greater than 100% for the first, greater than 100% for the second.

Compared with `O=C1O/C(=C/Br)CCC1c1cccc2ccccc12` (centres undefined) [Bromoenol Lactone], `O=C(O)Cn1nnc(-c2cc(N3CCC(Oc4cc(F)ccc4Br)CC3)no2)n1` [MK-8245] is higher in cell viability: 87.7% for the first, greater than 100% for the second.

Going from `Nc1nc(Cl)nc2c1ncn2[C@H]1C[C@H](O)[C@@H](CO)O1` [Cladribine] to `CC[C@@]1(O)C(=O)OCc2c1cc1n(c2=O)Cc2cc3c(CN(C)C)c(O)ccc3nc2-1` [Topotecan], the cell viability rises from 59.8% to 76.2%.

First: N#CC(C#N)=NNc1ccc(OC(F)(F)F)cc1 [FCCP]
Second: C=C(C)[C@H]1Cc2c(ccc3c2O[C@@H]2COc4cc(OC)c(OC)cc4[C@@H]2C3=O)O1 [Rotenone]
The cell viability of the first is lower: 82.4% for the first, 85.5% for the second.

Work on `C=C(C=NNC(=N)N)NNC(=N)N` [Mitoguazone] yielded a cell viability of 98.6%.

same assay, conditions: 10000 nM; 72 h

Going from `O=C(C1CC1)N1CC[C@@H](C=C2NNC(=O)N2c2ccc(-c3ccc4occc4c3)cc2)C1` to `Cc1c(-c2ccc(-c3ccccc3F)cc2)nc2ccc(F)cc2c1C(=O)O` [Brequinar], the cell viability rises from 88% to 97.7%.

Compared with `C[C@H](NC(=O)c1sccc1OCc1ccc(Cl)cc1)c1ccccc1`, `Oc1ccc(Nc2nc(-c3ccc(Cl)cc3)cs2)cc1` [SKI II] is lower in cell viability: greater than 100% for the first, 79.3% for the second.

First: O=C(O)C1=CC(=C(c2ccc(O)c(C(=O)O)c2)c2ccc(O)c(C(=O)O)c2)C=CC1=O [Aurintricarboxylic acid]
Second: O=C1c2cc([N+](=O)[O-])ccc2-n2c1nc1ccccc1c2=O [GNF-Pf-3777]
The cell viability of the first is higher: greater than 100% for the first, 64.4% for the second.

Compared with `COC(=O)[C@]12CCC(C)(C)C[C@H]1[C@H]1C(=O)C=C3[C@@]4(C)C=C(C#N)C(=O)C(C)(C)[C@@H]4CC[C@@]3(C)[C@]1(C)CC2` [Bardoxolone methyl], `COc1cc(/C=C/C(=O)N2CCC=CC2=O)cc(OC)c1OC` [Piperlongumine] is lower in cell viability: 7.29% for the first, 5.04% for the second.

First: O=C1O/C(=C/Br)CCC1c1cccc2ccccc12 (centres undefined) [Bromoenol Lactone]
Second: O=C(O)Cn1nnc(-c2cc(N3CCC(Oc4cc(F)ccc4Br)CC3)no2)n1 [MK-8245]
The cell viability of the first is lower: 57.2% for the first, 97% for the second.

Going from `Nc1nc(Cl)nc2c1ncn2[C@H]1C[C@H](O)[C@@H](CO)O1` [Cladribine] to `CC[C@@]1(O)C(=O)OCc2c1cc1n(c2=O)Cc2cc3c(CN(C)C)c(O)ccc3nc2-1` [Topotecan], the cell viability falls from 63.8% to 53.3%.

First: N#CC(C#N)=NNc1ccc(OC(F)(F)F)cc1 [FCCP]
Second: C=C(C)[C@H]1Cc2c(ccc3c2O[C@@H]2COc4cc(OC)c(OC)cc4[C@@H]2C3=O)O1 [Rotenone]
The cell viability of the first is lower: 9.9% for the first, 73.9% for the second.

In the case of `C=C(C=NNC(=N)N)NNC(=N)N` [Mitoguazone], the cell viability is reported as 84.1%.

tested on: myeloid leukemia patient primary cells Pat.3; assay: as above; details: 1 nM; 72 h
How it was run: as §1

First: O=C(C1CC1)N1CC[C@@H](C=C2NNC(=O)N2c2ccc(-c3ccc4occc4c3)cc2)C1
Second: Cc1c(-c2ccc(-c3ccccc3F)cc2)nc2ccc(F)cc2c1C(=O)O [Brequinar]
The cell viability of the first is lower: 93.5% for the first, greater than 100% for the second.

Compared with `C[C@H](NC(=O)c1sccc1OCc1ccc(Cl)cc1)c1ccccc1`, `O=C1O/C(=C/Br)CCC1c1cccc2ccccc12` (centres undefined) [Bromoenol Lactone] is lower in cell viability: 91.3% for the first, 89.5% for the second.

First: O=C(O)C1=CC(=C(c2ccc(O)c(C(=O)O)c2)c2ccc(O)c(C(=O)O)c2)C=CC1=O [Aurintricarboxylic acid]
Second: O=C1c2cc([N+](=O)[O-])ccc2-n2c1nc1ccccc1c2=O [GNF-Pf-3777]
The cell viability of the first is higher: greater than 100% for the first, 93.1% for the second.

Going from `COC(=O)[C@]12CCC(C)(C)C[C@H]1[C@H]1C(=O)C=C3[C@@]4(C)C=C(C#N)C(=O)C(C)(C)[C@@H]4CC[C@@]3(C)[C@]1(C)CC2` [Bardoxolone methyl] to `O=C(O)Cn1nnc(-c2cc(N3CCC(Oc4cc(F)ccc4Br)CC3)no2)n1` [MK-8245], the cell viability rises from 83.7% to greater than 100%.

First: Nc1nc(Cl)nc2c1ncn2[C@H]1C[C@H](O)[C@@H](CO)O1 [Cladribine]
Second: C=C(C=NNC(=N)N)NNC(=N)N [Mitoguazone]
The cell viability of the first is lower: 92.1% for the first, 97.3% for the second.

`N#CC(C#N)=NNc1ccc(OC(F)(F)F)cc1` [FCCP] showed a cell viability of 88.5%.
